From patent US20210093551A1, “Methods Of Use Of Oral Care Compositions Comprising Hops” (The Procter & Gamble Company, priority 2019, published 2021)

Test system: plaque biofilm grown from fresh pooled human saliva
Assay: in vitro plaque glycolysis model (iPGRM): acid production and glycolysis inhibition after treatment of 3-day biofilm
Type: cell-based, plaque microorganisms from human saliva
Protocol: Acid production and acid inhibition were determined with the in vitro plaque glycolysis model (iPGRM). The purpose of this technique is to provide a simple and quick method for determining if compounds have an influence on the metabolic pathways that plaque microorganisms utilize to produce toxins that adversely affect gingival health.
The in vitro plaque glycolysis model (iPGRM) is a technique in which plaque is grown from human saliva and treated with various agents to determine anti-glycolytic activity of treatments. When bacteria convert sugar into energy with the help of enzymes, acids are formed. These acids demineralize and damage the dental enamel. The purpose of this technique is to provide a simple and quick method for determining if treatment compounds have an inhibitory effect on the metabolic pathways that plaque microorganisms utilize for the production of acids or toxins and/or inhibit their growth. […]
[…] The pH of the media solutions was then measured to determine the amount of glycolysis inhibition relative to a negative control.
On Day 1, new glass rods (5 mm×90 mm) were polished approximately 25 mm from the un-tapered end on a lathe with silicon carbide paper of 240, 320, 400, and 600 grit used sequentially. […] After polishing, rods were stored until ready to run test. […]

[H]/N=C(\N/C(=N/[H])NCCCCCCNC(=N)NC(=N)Nc1ccc(Cl)cc1)Nc1ccc(Cl)cc1 [1% Chlorhexidine, Chlorhexidine]
Mean Acid Inhibition (%) Mean (2 min treatment (1:5 in water), glycolysis inhibition relative to negative control (Crest Cavity Protection)): 75.12%
Acid Production (ΔpH) Mean (2 min treatment with dentifrice slurry or diluted treatment in water (1:5), ΔpH versus blank vials): 0.4 ΔpH
